According to patent US12077503B2, “Substituted cyclic amides and their use as herbicides” (FMC CORPORATION, priority 2015, dated 2024):

What was measured:
Format in all cases: in vivo
[1] = tested on: rice (Oryra sativa); test: Test B flooded paddy test; details: Oryza sativa, 250 g ai/ha, Flood; 0 to 100 scale where 0 is no effect and 100 is complete control; read-out: Rice plant response rating
Outline: (§1)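 2-leaf plants; pots flooded 3 cm over soil; cpd added to paddy water; depth held; greenhouse 13–15 d; visual rating vs controls, 0 = no effect, 100 = complete control.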

[2] = tested on: ducksalad (Heteranthera limosa); test: Test B flooded paddy test; details: Heteranthera limosa, 250 g ai/ha, Flood; 0 to 100 scale where 0 is no effect and 100 is complete control; read-out: Ducksalad plant response rating
Outline: as §1

[3] = tested on: barnyardgrass (Echinochloa crus-galli); test: Test B flooded paddy test; details: Echinochloa crus-galli, 250 g ai/ha, Flood; 0 to 100 scale where 0 is no effect and 100 is complete control; read-out: Barnyardgrass plant response rating
Outline: as §1

[4] = tested on: sedge, umbrella (small-flower umbrella sedge, Cyperus difformis); test: Test B flooded paddy test; details: Cyperus difformis, 250 g ai/ha, Flood; 0 to 100 scale where 0 is no effect and 100 is complete control; read-out: Sedge, Umbrella plant response rating
Outline: as §1

[5] = tested on: Kochia (Kochia scoparia); test: Test A preemergence; details: Bassia scoparia, pre-emergence, 240 h, 0 to 100 scale where 0 is no effect and 100 is complete control, read-out: Kochia plant response rating
Outline: (§2)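 Seeded soil received test chemicals as a preemergence directed spray, and seedlings at one to two leaves, 2–10 cm tall, received them postemergence, in a non-phytotoxic, surfactant-containing solvent mixture. Pots were held in a greenhouse for approximately 10 d, then rated for injury from 0, no effect, to 100, complete control.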

[6] = tested on: ryegrass, Italian (Italian ryegrass, Lolium multiflorum); test: Test A preemergence; details: Lolium multiflorum, pre-emergence, 240 h, 0 to 100 scale where 0 is no effect and 100 is complete control, read-out: Ryegrass, Italian plant response rating
Outline: as §2

[7] = tested on: ragweed (common ragweed, Ambrosia elatior); test: Test A preemergence; details: Ambrosia artemisiifolia, pre-emergence, 240 h, 0 to 100 scale where 0 is no effect and 100 is complete control, read-out: Ragweed plant response rating
Outline: as §2

[8] = tested on: pigweed (Amaranthus retroflexus); test: Test A preemergence; details: Amaranthus retroflexus, pre-emergence, 240 h, 0 to 100 scale where 0 is no effect and 100 is complete control, read-out: Pigweed plant response rating
[9] = tested on: giant foxtail (Setaria faberii); test: Test A preemergence; details: Setaria faberi, pre-emergence, 240 h, 0 to 100 scale where 0 is no effect and 100 is complete control, read-out: Foxtail, Giant plant response rating
Outline: as §2

[10] = tested on: barnyardgrass (Echinochloa crus-galli); test: Test A preemergence; details: Echinochloa crus-galli, pre-emergence, 240 h, 0 to 100 scale where 0 is no effect and 100 is complete control, read-out: Barnyardgrass plant response rating
Outline: as §2

[11] = tested on: corn (Zea mays); test: Test A postemergence; details: Zea mays, post-emergence, 240 h
Outline: as §2

[12] = tested on: Kochia (Kochia scoparia); test: Test A postemergence; details: Bassia scoparia, post-emergence, 240 h
Outline: as §2

[13] = tested on: ryegrass, Italian (Italian ryegrass, Lolium multiflorum); test: Test A postemergence; details: Lolium multiflorum, post-emergence, 240 h
Outline: as §2

[14] = tested on: ragweed (common ragweed, Ambrosia elatior); test: Test A postemergence; details: Ambrosia artemisiifolia, post-emergence, 240 h
Outline: as §2

[15] = tested on: blackgrass (Alopecurus myosuroides); test: Test A postemergence; details: Alopecurus myosuroides, post-emergence, 240 h
Outline: as §2

[16] = tested on: pigweed (Amaranthus retroflexus); test: Test A postemergence; details: Amaranthus retroflexus, post-emergence, 240 h
Outline: as §2

[17] = tested on: giant foxtail (Setaria faberii); test: Test A postemergence; details: Setaria faberi, post-emergence, 240 h
Outline: as §2

[18] = tested on: barnyardgrass (Echinochloa crus-galli); test: Test A postemergence; details: Echinochloa crus-galli, post-emergence, 240 h
Outline: as §2

[19] = tested on: Galium (catchweed bedstraw, Galium aparine); test: Test A postemergence; details: Galium, post-emergence, 240 h
Outline: as §2

[20] = tested on: wheat (Triticum aestivum); test: Test A postemergence; details: Triticum aestivum, post-emergence, 240 h
Outline: as §2

[21] = 125 g ai/ha, preemergence, approx. 10 d

COCOCc1ccccc1NC(=O)[C@H]1C(=O)N(C)C[C@@H]1c1cccc(C(F)(F)F)c1 (racemic) [Compound 1161]
15%: pest or weed control at 250 g/ha [1]
20%: pest or weed control at 125 g/ha [9, 21]
0%: pest or weed control at 250 g/ha [2] | pest or weed control at 250 g/ha [3] | pest or weed control at 250 g/ha [4] | pest or weed control at 31 g/ha ([5]; 31 g ai/ha, Preemergence) | pest or weed control at 125 g/ha [5, 21] | pest or weed control at 31 g/ha ([6]; 31 g ai/ha, Preemergence) | pest or weed control at 125 g/ha [6, 21] | pest or weed control at 31 g/ha ([7]; 31 g ai/ha, Preemergence) | pest or weed control at 125 g/ha [7, 21] | pest or weed control at 31 g/ha ([8]; 31 g ai/ha, Preemergence) | pest or weed control at 125 g/ha [8, 21] | pest or weed control at 31 g/ha ([9]; 31 g ai/ha, Preemergence) | pest or weed control at 31 g/ha ([10]; 31 g ai/ha, Preemergence) | pest or weed control at 125 g/ha [10, 21] | plant injury at 125 g/ha ([11]; 125 g ai/ha, postemergence, visual injury vs untreated controls after approx. 10 d, 0 = no effect, 100 = complete control, read-out: Corn plant response rating (0 to 100 scale)) | Corn plant response rating (crop injury, 0 = no effect, 100 = complete kill) at 31 g/ha ([11]; Postemergence, 31 g ai/ha, visual injury after approx. 10 d, 0 to 100 scale, 0 no effect, 100 complete control) | pest or weed control at 125 g/ha ([12]; 125 g ai/ha, postemergence, visual injury vs untreated controls after approx. 10 d, 0 = no effect, 100 = complete control, read-out: Kochia plant response rating (0 to 100 scale)) | pest or weed control at 31 g/ha ([12]; Postemergence, 31 g ai/ha, visual injury after approx. 10 d, 0 to 100 scale, 0 no effect, 100 complete control, read-out: Plant response rating, Kochia) | pest or weed control at 125 g/ha ([13]; 125 g ai/ha, postemergence, visual injury vs untreated controls after approx. 10 d, 0 = no effect, 100 = complete control, read-out: Ryegrass, Italian plant response rating (0 to 100 scale)) | pest or weed control at 31 g/ha ([13]; Postemergence, 31 g ai/ha, visual injury after approx. 10 d, 0 to 100 scale, 0 no effect, 100 complete control, read-out: Plant response rating, Ryegrass, Italian) | pest or weed control at 125 g/ha ([14]; 125 g ai/ha, postemergence, visual injury vs untreated controls after approx. 10 d, 0 = no effect, 100 = complete control, read-out: Ragweed plant response rating (0 to 100 scale)) | pest or weed control at 31 g/ha ([14]; Postemergence, 31 g ai/ha, visual injury after approx. 10 d, 0 to 100 scale, 0 no effect, 100 complete control, read-out: Plant response rating, Ragweed) | pest or weed control at 125 g/ha ([15]; 125 g ai/ha, postemergence, visual injury vs untreated controls after approx. 10 d, 0 = no effect, 100 = complete control, read-out: Blackgrass plant response rating (0 to 100 scale)) | pest or weed control at 31 g/ha ([15]; Postemergence, 31 g ai/ha, visual injury after approx. 10 d, 0 to 100 scale, 0 no effect, 100 complete control, read-out: Plant response rating, Blackgrass) | pest or weed control at 125 g/ha ([16]; 125 g ai/ha, postemergence, visual injury vs untreated controls after approx. 10 d, 0 = no effect, 100 = complete control, read-out: Pigweed plant response rating (0 to 100 scale)) | pest or weed control at 31 g/ha ([16]; Postemergence, 31 g ai/ha, visual injury after approx. 10 d, 0 to 100 scale, 0 no effect, 100 complete control, read-out: Plant response rating, Pigweed) | pest or weed control at 125 g/ha ([17]; 125 g ai/ha, postemergence, visual injury vs untreated controls after approx. 10 d, 0 = no effect, 100 = complete control, read-out: Foxtail, Giant plant response rating (0 to 100 scale)) | pest or weed control at 31 g/ha ([17]; Postemergence, 31 g ai/ha, visual injury after approx. 10 d, 0 to 100 scale, 0 no effect, 100 complete control, read-out: Plant response rating, Foxtail, Giant) | pest or weed control at 125 g/ha ([18]; 125 g ai/ha, postemergence, visual injury vs untreated controls after approx. 10 d, 0 = no effect, 100 = complete control, read-out: Barnyardgrass plant response rating (0 to 100 scale)) | pest or weed control at 31 g/ha ([18]; Postemergence, 31 g ai/ha, visual injury after approx. 10 d, 0 to 100 scale, 0 no effect, 100 complete control, read-out: Plant response rating, Barnyardgrass) | pest or weed control at 125 g/ha ([19]; 125 g ai/ha, postemergence, visual injury vs untreated controls after approx. 10 d, 0 = no effect, 100 = complete control, read-out: Galium plant response rating (0 to 100 scale)) | pest or weed control at 31 g/ha ([19]; Postemergence, 31 g ai/ha, visual injury after approx. 10 d, 0 to 100 scale, 0 no effect, 100 complete control, read-out: Plant response rating, Galium) | plant injury at 125 g/ha ([20]; 125 g ai/ha, postemergence, visual injury vs untreated controls after approx. 10 d, 0 = no effect, 100 = complete control, read-out: Wheat plant response rating (0 to 100 scale)) | plant injury at 31 g/ha ([20]; Postemergence, 31 g ai/ha, visual injury after approx. 10 d, 0 to 100 scale, 0 no effect, 100 complete control, read-out: Plant response rating, Wheat)
